Experimental data from patent US11358931B2, “Selective androgen receptor modulators (SARMs) and uses thereof” (priority 2007, dated 2022).
pIC50, pKi: −log10 of the molar value.

Legend:
[1] = biological target: T1, baculovirus expressed hAR protein (Homo sapiens, UniProt P10275); assay: Receptor binding assay ([3H]-dihydrotestosterone displacement)
T1 construct: made in house; host or cells: Sf-21 insect cells (baculovirus)
T1 sequence (P10275 1-920): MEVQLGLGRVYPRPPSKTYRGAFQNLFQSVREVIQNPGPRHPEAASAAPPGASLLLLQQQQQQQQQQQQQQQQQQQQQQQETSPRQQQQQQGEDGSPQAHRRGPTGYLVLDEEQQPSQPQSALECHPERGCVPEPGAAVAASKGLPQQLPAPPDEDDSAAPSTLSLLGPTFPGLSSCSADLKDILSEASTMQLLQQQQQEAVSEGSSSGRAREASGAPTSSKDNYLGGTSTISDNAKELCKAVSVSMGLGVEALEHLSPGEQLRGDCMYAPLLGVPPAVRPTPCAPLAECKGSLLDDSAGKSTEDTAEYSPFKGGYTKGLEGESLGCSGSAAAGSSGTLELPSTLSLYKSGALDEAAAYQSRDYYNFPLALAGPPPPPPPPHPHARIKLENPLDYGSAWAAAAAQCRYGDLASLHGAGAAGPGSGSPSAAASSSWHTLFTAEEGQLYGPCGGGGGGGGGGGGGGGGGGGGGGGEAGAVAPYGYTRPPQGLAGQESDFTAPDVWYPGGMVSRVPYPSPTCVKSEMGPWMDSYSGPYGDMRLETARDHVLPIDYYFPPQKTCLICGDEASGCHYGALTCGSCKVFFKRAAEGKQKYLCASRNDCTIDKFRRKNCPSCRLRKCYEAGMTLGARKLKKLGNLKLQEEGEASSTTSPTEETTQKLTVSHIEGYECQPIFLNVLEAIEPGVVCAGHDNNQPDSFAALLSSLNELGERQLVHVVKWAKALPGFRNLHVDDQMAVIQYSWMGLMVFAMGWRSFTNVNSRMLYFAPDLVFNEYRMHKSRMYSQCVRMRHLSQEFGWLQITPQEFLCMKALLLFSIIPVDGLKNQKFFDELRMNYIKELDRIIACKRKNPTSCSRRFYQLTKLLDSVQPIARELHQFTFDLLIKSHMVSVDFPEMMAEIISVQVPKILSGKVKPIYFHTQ

[2] = test system: TNFα-IL-1β-induced IL-6 promoter activity; assay: IL-6 promoter repression assay (Saos-2 human osteoblast cells transfected with human AR); type: cell-based; conditions: for pIC50: Homo sapiens, read-out: average IC50, suppression of TNFα-IL-1β-induced IL-6 promoter activity
From the text: An exemplary cotransfection assay for measuring AR-mediated effects on bone measures the modulation of IL-6 promoter activity. IL-6 is an important bone resorption factor (Jilka et al, Science 257: 88-91 (1992); Bellido et al., J Clin Invest 95: 2886-2895 (1995)). Overexpression of IL-6 can cause severe bone loss in vivo. […] It has been reported that androgens regulate IL-6 mRNA by suppressing NFKB binding to its response element (Keller et al., J Biol Chem 271: 26267-26275 (1996)). Thus, the AR-mediated modulation of IL-6 promoter activity provides an excellent marker for studying androgen action in bone. The assay is a cotransfection assay that measures the ability of compound to repress gene expression via the human androgen receptor from the IL-6 promoter using a luciferase reporter assay in human osteoblast cells.
A human osteoblast cell line (Saos-2, available from American Type Cell Culture (ATCC, Rockville, Md.)) can be used in the luciferase reporter assay. An IL-6-LUC reporter plasmid can be constructed by inserting the IL-6 promoter sequence into a luciferase reporter vector (e.g., by cloning the human IL-6 promoter region from −232 to +17 bp from human liver genomic DNA (Clontech, Palo Alti, Calif.) and inserting the sequence into a pGL2-enhancer reporter plasmid (Promega, Madison, Wis.)). The Saos-2 cell line can be transiently transfected with a human AR expression plasmid and a luciferase reporter plasmid containing the IL-6 promoter upstream of the luciferase cDNA. The compounds to be tested are added to the cells after transfection and after 24 hours of incubation, the cells are lysed with a detergent-containing buffer and assayed for luciferase activity. The EC50 is determined from the concentration response curve for the compound, and the inhibitory effect on TNFα/IL-1β induction (% inhibition) can be calculated according to the equation: […]
IL-6 is an important bone resorption factor. Over-expression of IL-6 can cause severe bone loss in vivo. Reducing IL-6 production by bone cells would be therapeutically beneficial by reducing bone resorption. Compound 102 and the androgen receptor modulators LG0893410 and LG0893411 were tested to determine their ability to suppress TNFα-IL-1β-induced IL-6 promoter activity in Saos-2 human osteoblast cells using a cotransfection assay. A human osteoblast cell line (Saos-2) was transiently transfected with a human AR expression plasmid and a luciferase reporter plasmid containing the IL-6 promoter upstream of the luciferase cDNA. Saos-2 cells were seeded at 6000 cells/well in 96-well plates. The same day, a non-liposomal formulation, FuGENE 6 reagent (Roche, Indianapolis, Ind.) was used for transfection of the cells. To each well was added […] of the IL-6-LUC reporter plasmid and 0.7 μg of pCMV-hAR. Twenty-four hours after transfection, different concentrations of the solvated compound (10^−11 to 10^−6 M) in DMEM (Dulbecco's Minimal Essential Media) were added in triplicate to the cells and the cells were incubated for 24 hours. The expression of luciferase was stimulated by the cytokines Tumor Necrosis Factor α (TNFα, 10 ng/mL) and Interleukin-1 beta (IL-1β, 1 ng/mL). The medium was aspirated and the cells were lysed with a detergent-containing buffer. After addition of Luciferase Assay Buffer to each well, the cells were assayed for luciferase activity using a luminometer to determine the level of transcriptional activation.

Compound	pKi [1]	pIC50 ([2]; Saos-2 cells)	efficacy, % of DHT ([2]; Saos-2 cells)	more potent than LG0893410 and LG0893411 in suppressing IL-6 promoter activity ([2]; ratio of IC50)
O=[N+]([O-])c1ccc(N2CCC[C@@H]2[C@@H](O)C(F)(F)F)cc1C(F)(F)F [LG0893410, R,R-2,2,2-trifluoro-1-[1-(4-nitro-3-trifluoromethyl-phenyl)-pyrrolidin-2-yl]-ethanol]	8.60	8.92	–	–
O=[N+]([O-])c1ccc(N2CCC[C@@H]2[C@H](O)C(F)(F)F)cc1C(F)(F)F [LG0893411, S, R-2,2,2-trifluoro-1-[1-(4-nitro-3-trifluoromethyl-phenyl)-pyrrolidin-2-yl]-ethanol]	8.24	8.82	–	–
N#Cc1ccc(N2CCC[C@@H]2[C@@H](O)C(F)(F)F)cc1C(F)(F)F [Compound 102, R,R-4-(2-(1-Hydroxyl-2,2,2-trifluoroethyl)-pyrrolidinyl)-2-trifluoromethyl-benzonitrile]	9.05	9.39	97%	3-4 fold
